The values below come from ChEMBL document CHEMBL1133332, “Conversion of a polysaccharide to nitric oxide-releasing form. Dual-mechanism anticoagulant activity of diazeniumdiolated heparin” (2000).

The species entered for test [1] is Homo sapiens. Briefly: Compound (at 25 micro g/ml) was tested for antithrombotic activity in presence of heparin. In kind it is functional.
For test [2], the species on record is Homo sapiens. Description: compound (at 25 micro g/ml) was tested for antithrombotic activity. The class given is functional.

For `COCO/N=[N+](\[O-])N1CCN(C[C@H]2O[C@H](OC)[C@H](NS(=O)(=O)O)[C@@H](OS(=O)(=O)O)[C@@H]2O[C@@H]2O[C@H](C(=O)O)[C@@H](OC)[C@H](O)[C@H]2O)CC1` [HEPARIN/DIAZENIUMDIOLATE CONJUGATE], the Thrombin time in test [1] worked out at 80 s. Regarding `CO[C@H]1O[C@H](CN2CCNCC2)[C@@H](O[C@@H]2O[C@H](C(=O)O)[C@@H](OC)[C@H](O)[C@H]2O)[C@H](OS(=O)(=O)O)[C@H]1NS(=O)(=O)O` [HEPARIN/DIAZENIUMDIOLATE CONJUGATE], the Thrombin time in test [1] was 31 s. Consider `CO[C@H]1O[C@H](COS(=O)(=O)O)[C@@H](O[C@@H]2O[C@H](C(=O)O)[C@@H](OC)[C@H](O)[C@H]2O)[C@H](OS(=O)(=O)O)[C@H]1NS(=O)(=O)O` [HEPARIN/DIAZENIUMDIOLATE CONJUGATE], for which the Thrombin time in test [2] is 92 s.
